Measured values from PubChem BioAssay (NCI).
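GI50 marks 50% less growth. TGI denotes the concentration required for complete inhibition of growth.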

Tests used:
Experiment in all cases: growth of human tumour cells (NCI), 384-well format; in the data active means GI50 below about 0.43 µM; inactive means the rest
NCI-H460 NSCLC = system: NCI-H460 NSCLC
MDA-MB-468 breast = system: MDA-MB-468 breast
MDA-MB-435 melanoma = system: MDA-MB-435 melanoma
T-47D breast = system: T-47D breast
PC-3 prostate = system: PC-3 prostate
MALME-3M melanoma = system: MALME-3M melanoma
NCI-H226 lung = system: NCI-H226 lung
SR leukemia = system: SR leukemia
U251 glioblastoma = system: U251 glioblastoma
HS 578T breast = system: HS 578T breast
HOP-62 NSCLC = system: HOP-62 NSCLC
HCT-116 colon = system: HCT-116 colon
786-0 renal = system: 786-0 renal
MCF7 breast = system: MCF7 breast
TK-10 renal = system: TK-10 renal
NCI-H522 lung = system: NCI-H522 lung
CAKI-1 renal = system: CAKI-1 renal
OVCAR-8 ovarian = system: OVCAR-8 ovarian
SF-539 CNS = system: SF-539 CNS
SK-MEL-28 melanoma = system: SK-MEL-28 melanoma
SF-268 CNS = system: SF-268 CNS
M14 melanoma = system: M14 melanoma
EKVX NSCLC = system: EKVX NSCLC
UO-31 renal = system: UO-31 renal
SN12C renal = system: SN12C renal
SK-OV-3 ovarian = system: SK-OV-3 ovarian
ACHN renal = system: ACHN renal
KM12 colon = system: KM12 colon
OVCAR-3 ovarian = system: OVCAR-3 ovarian
A549 NSCLC = system: A549 NSCLC
HL-60(TB) leukemia = system: HL-60(TB) leukemia
SF-295 CNS = system: SF-295 CNS
SNB-19 CNS = system: SNB-19 CNS
SK-MEL-5 melanoma = system: SK-MEL-5 melanoma
NCI-H322M lung = system: NCI-H322M lung
SK-MEL-2 melanoma = system: SK-MEL-2 melanoma
A498 renal = system: A498 renal
K-562 leukemia = system: K-562 leukemia
UACC-257 melanoma = system: UACC-257 melanoma
NCI-H23 lung = system: NCI-H23 lung
SW-620 colon = system: SW-620 colon
HT29 colon = system: HT29 colon
MDA-MB-231 breast = system: MDA-MB-231 breast
COLO 205 colon = system: COLO 205 colon
HCT-15 colon = system: HCT-15 colon
OVCAR-5 ovarian = system: OVCAR-5 ovarian
SNB-75 CNS = system: SNB-75 CNS
UACC-62 melanoma = system: UACC-62 melanoma
RXF 393 renal = system: RXF 393 renal
BT-549 breast = system: BT-549 breast
DU-145 prostate = system: DU-145 prostate
HOP-92 NSCLC = system: HOP-92 NSCLC
IGROV1 ovarian = system: IGROV1 ovarian
OVCAR-4 ovarian = system: OVCAR-4 ovarian
MOLT-4 leukemia = system: MOLT-4 leukemia

Cc1ncnc2c1ccn2[C@@H]1C[C@H](Oc2cc(C(F)F)c(F)c3c2CNCC3)[C@@H](O)[C@H]1O
27.6 µM: TGI (UACC-257 melanoma)
24.9 µM: TGI (RXF 393 renal)
30.8 µM: TGI (HL-60(TB) leukemia)
50.1 µM: TGI (SK-MEL-2 melanoma)
63.3 µM: TGI (HCT-116 colon)
inactive: GI50 (MDA-MB-468 breast) 6.74 µM | GI50 (MDA-MB-435 melanoma) 38.4 µM | GI50 (T-47D breast) 1.92 µM | GI50 (PC-3 prostate) 19.8 µM | GI50 (MALME-3M melanoma) 15.5 µM | GI50 (NCI-H226 lung) 25.7 µM | GI50 (U251 glioblastoma) 31.6 µM | GI50 (HS 578T breast) 19.3 µM | GI50 (HOP-62 NSCLC) 28.2 µM | GI50 (HCT-116 colon) 15 µM | GI50 ([…]-0 renal) 23.6 µM | GI50 (MCF7 breast) 6.49 µM | GI50 (TK-10 renal) 25.5 µM | GI50 (NCI-H522 lung) 33 µM | GI50 (CAKI-1 renal) 19.1 µM | GI50 (OVCAR-8 ovarian) 87.5 µM | GI50 (SF-539 CNS) 36.2 µM | GI50 (SK-MEL-28 melanoma) 17.2 µM | GI50 (SF-268 CNS) 29 µM | GI50 (M14 melanoma) 18.4 µM | GI50 (EKVX NSCLC) 12.8 µM | GI50 (UO-31 renal) 26.4 µM | GI50 (SN12C renal) 49.9 µM | GI50 (SK-OV-3 ovarian) 41.9 µM | GI50 (ACHN renal) 39.6 µM | GI50 (OVCAR-3 ovarian) 17.7 µM | GI50 (A549 NSCLC) 57.8 µM | GI50 (HL-60(TB) leukemia) 17 µM | GI50 (SF-295 CNS) 18.9 µM | GI50 (SNB-19 CNS) > 100 µM | GI50 (SK-MEL-5 melanoma) 5.57 µM | GI50 (NCI-H322M lung) 24.2 µM | GI50 (SK-MEL-2 melanoma) 22.1 µM | GI50 (A498 renal) 19.3 µM | GI50 (K-562 leukemia) 11.1 µM | GI50 (UACC-257 melanoma) 13.5 µM | GI50 (NCI-H23 lung) 12.9 µM | GI50 (SW-620 colon) 33.3 µM | GI50 (HT29 colon) 14 µM | GI50 (MDA-MB-231 breast) 39.2 µM | GI50 (COLO 205 colon) 46.5 µM | GI50 (HCT-15 colon) 30.5 µM | GI50 (OVCAR-5 ovarian) > 100 µM | GI50 (SNB-75 CNS) 20.8 µM | GI50 (UACC-62 melanoma) 12.5 µM | GI50 (RXF 393 renal) 3.75 µM | GI50 (BT-549 breast) 24.7 µM | GI50 (DU-145 prostate) 82.9 µM | GI50 (HOP-92 NSCLC) 28.1 µM | GI50 (IGROV1 ovarian) 57.1 µM
23.8 µM: TGI (K-562 leukemia)
active: GI50 (NCI-H460 NSCLC) 0.221 µM | GI50 (KM12 colon) 0.0943 µM
59.8 µM: TGI (SF-295 CNS)
38.4 µM: TGI (M14 melanoma)
31.3 µM: TGI (MALME-3M melanoma)
53.3 µM: TGI (UACC-62 melanoma)
> 100 µM: TGI (NCI-H460 NSCLC) | TGI (MDA-MB-435 melanoma) | TGI (PC-3 prostate) | TGI (NCI-H226 lung) | TGI (U251 glioblastoma) | TGI (HS 578T breast) | TGI (HOP-62 NSCLC) | TGI (786-0 renal) | TGI (MCF7 breast) | TGI (TK-10 renal) | TGI (NCI-H522 lung) | TGI (CAKI-1 renal) | TGI (OVCAR-8 ovarian) | TGI (SF-539 CNS) | TGI (SF-268 CNS) | TGI (UO-31 renal) | TGI (SN12C renal) | TGI (SK-OV-3 ovarian) | TGI (ACHN renal) | TGI (KM12 colon) | TGI (OVCAR-3 ovarian) | TGI (A549 NSCLC) | TGI (SNB-19 CNS) | TGI (NCI-H322M lung) | TGI (A498 renal) | TGI (SW-620 colon) | TGI (HT29 colon) | TGI (MDA-MB-231 breast) | TGI (COLO 205 colon) | TGI (HCT-15 colon) | TGI (OVCAR-5 ovarian) | TGI (BT-549 breast) | TGI (DU-145 prostate) | TGI (HOP-92 NSCLC) | TGI (IGROV1 ovarian)
96 µM: TGI (EKVX NSCLC)
52.1 µM: TGI (NCI-H23 lung)
88.6 µM: TGI (SNB-75 CNS)
12.2 µM: TGI (SR leukemia)
20.6 µM: TGI (SK-MEL-5 melanoma)
37.6 µM: TGI (T-47D breast)
42.3 µM: TGI (SK-MEL-28 melanoma)
35.2 µM: TGI (MDA-MB-468 breast)

Cn1cc(Nc2nccc(-c3ccc4c(c3)CN(C3COC3)CC[C@H]4NC(=O)c3cn(C(C)(C)C)nn3)n2)cn1
27.1 µM: TGI (SR leukemia)
54.1 µM: TGI (RXF 393 renal)
29.4 µM: TGI (MOLT-4 leukemia)
inactive: GI50 (NCI-H460 NSCLC) 44.2 µM | GI50 (MDA-MB-468 breast) 23.7 µM | GI50 (MDA-MB-435 melanoma) 43.2 µM | GI50 (T-47D breast) 30.9 µM | GI50 (PC-3 prostate) > 100 µM | GI50 (MALME-3M melanoma) 45.5 µM | GI50 (NCI-H226 lung) 33 µM | GI50 (SR leukemia) 12.9 µM | GI50 (U251 glioblastoma) > 100 µM | GI50 (HS 578T breast) 84.7 µM | GI50 (HOP-62 NSCLC) > 100 µM | GI50 (HCT-116 colon) 44.5 µM | GI50 ([…]-0 renal) > 100 µM | GI50 (MCF7 breast) 20.8 µM | GI50 (TK-10 renal) 70.8 µM | GI50 (NCI-H522 lung) 22.1 µM | GI50 (CAKI-1 renal) 44.7 µM | GI50 (OVCAR-8 ovarian) > 100 µM | GI50 (SF-539 CNS) 49.2 µM | GI50 (SK-MEL-28 melanoma) 37.1 µM | GI50 (SF-268 CNS) > 100 µM | GI50 (M14 melanoma) 36.5 µM | GI50 (EKVX NSCLC) 28 µM | GI50 (UO-31 renal) 48 µM | GI50 (SN12C renal) 46.7 µM | GI50 (SK-OV-3 ovarian) 29.5 µM | GI50 (ACHN renal) 41.9 µM | GI50 (KM12 colon) 56 µM | GI50 (OVCAR-3 ovarian) 60.9 µM | GI50 (A549 NSCLC) 60.9 µM | GI50 (HL-60(TB) leukemia) 35.1 µM | GI50 (SF-295 CNS) > 100 µM | GI50 (SNB-19 CNS) > 100 µM | GI50 (SK-MEL-5 melanoma) 27.3 µM | GI50 (NCI-H322M lung) 68 µM | GI50 (SK-MEL-2 melanoma) 66.3 µM | GI50 (OVCAR-4 ovarian) 54.4 µM | GI50 (MOLT-4 leukemia) 15.3 µM | GI50 (A498 renal) > 100 µM | GI50 (K-562 leukemia) 11.2 µM | GI50 (UACC-257 melanoma) 43.4 µM | GI50 (NCI-H23 lung) 30.2 µM | GI50 (SW-620 colon) 48.5 µM | GI50 (HT29 colon) 32.1 µM | GI50 (MDA-MB-231 breast) 78.1 µM | GI50 (COLO 205 colon) 37.7 µM | GI50 (HCT-15 colon) > 100 µM | GI50 (OVCAR-5 ovarian) 61.5 µM | GI50 (SNB-75 CNS) 45.8 µM | GI50 (UACC-62 melanoma) 27.3 µM | GI50 (RXF 393 renal) 11.4 µM | GI50 (BT-549 breast) 51.6 µM | GI50 (DU-145 prostate) > 100 µM | GI50 (HOP-92 NSCLC) 52.7 µM | GI50 (IGROV1 ovarian) 18.6 µM
54.4 µM: TGI (IGROV1 ovarian)
> 100 µM: TGI (NCI-H460 NSCLC) | TGI (MDA-MB-468 breast) | TGI (MDA-MB-435 melanoma) | TGI (T-47D breast) | TGI (PC-3 prostate) | TGI (MALME-3M melanoma) | TGI (NCI-H226 lung) | TGI (U251 glioblastoma) | TGI (HS 578T breast) | TGI (HOP-62 NSCLC) | TGI (HCT-116 colon) | TGI (786-0 renal) | TGI (MCF7 breast) | TGI (TK-10 renal) | TGI (CAKI-1 renal) | TGI (OVCAR-8 ovarian) | TGI (SF-539 CNS) | TGI (SK-MEL-28 melanoma) | TGI (SF-268 CNS) | TGI (M14 melanoma) | TGI (EKVX NSCLC) | TGI (UO-31 renal) | TGI (SN12C renal) | TGI (SK-OV-3 ovarian) | TGI (ACHN renal) | TGI (KM12 colon) | TGI (OVCAR-3 ovarian) | TGI (A549 NSCLC) | TGI (HL-60(TB) leukemia) | TGI (SF-295 CNS) | TGI (SNB-19 CNS) | TGI (SK-MEL-5 melanoma) | TGI (NCI-H322M lung) | TGI (SK-MEL-2 melanoma) | TGI (OVCAR-4 ovarian) | TGI (A498 renal) | TGI (UACC-257 melanoma) | TGI (NCI-H23 lung) | TGI (SW-620 colon) | TGI (HT29 colon) | TGI (MDA-MB-231 breast) | TGI (COLO 205 colon) | TGI (HCT-15 colon) | TGI (OVCAR-5 ovarian) | TGI (SNB-75 CNS) | TGI (UACC-62 melanoma) | TGI (BT-549 breast) | TGI (DU-145 prostate) | TGI (HOP-92 NSCLC)
74 µM: TGI (NCI-H522 lung)
24.6 µM: TGI (K-562 leukemia)
